{"source": "BindingDB's records for doi:10.1016/j.bmc.2018.08.021", "about": "(Zhengzhou University, 2018)", "key": {"[1]": {"assay": "Inhibition of ABCB1 in human SW620/Ad300 cells assessed as potentiation of cisplatin-induced cytotoxicity by measuring cisplatin IC50 at 4 uM after 72 hrs by MTT assay (Rvb = 0.61 +/- 0.03 microM)"}, "[2]": {"assay": "Inhibition of ABCB1 in human SW620/Ad300 cells assessed as potentiation of cisplatin-induced cytotoxicity by measuring cisplatin IC50 at 10 uM after 72 hrs by MTT assay (Rvb = 0.61 +/- 0.03 microM)"}, "[3]": {"assay": "Inhibition of ABCB1 in human SW620/Ad300 cells assessed as potentiation of cisplatin-induced cytotoxicity by measuring cisplatin IC50 at 20 uM after 72 hrs by MTT assay (Rvb = 0.61 +/- 0.03 microM)"}, "[4]": {"assay": "Inhibition of ABCB1 in human SW620/Ad300 cells assessed as potentiation of paclitaxel-induced cytotoxicity by measuring paclitaxel IC50 at 4 uM after 72 hrs by MTT assay (Rvb = 3.39 +/- 0.84 microM)"}, "[5]": {"assay": "Inhibition of ABCB1 in human SW620/Ad300 cells assessed as potentiation of paclitaxel-induced cytotoxicity by measuring paclitaxel IC50 at 10 uM after 72 hrs by MTT assay (Rvb = 3.39 +/- 0.84 microM)"}, "[6]": {"assay": "Inhibition of ABCB1 in human SW620/Ad300 cells assessed as potentiation of paclitaxel-induced cytotoxicity by measuring paclitaxel IC50 at 20 uM after 72 hrs by MTT assay (Rvb = 3.39 +/- 0.84 microM)"}, "[7]": {"assay": "Inhibition of ABCB1 in human SW620/Ad300 cells assessed as potentiation of doxorubicin-induced cytotoxicity by measuring doxorubicin IC50 at 4 uM after 72 hrs by MTT assay (Rvb = 6.15 +/- 0.63 microM)"}, "[8]": {"assay": "Inhibition of ABCB1 in human SW620/Ad300 cells assessed as potentiation of doxorubicin-induced cytotoxicity by measuring doxorubicin IC50 at 10 uM after 72 hrs by MTT assay (Rvb = 6.15 +/- 0.63 microM)"}, "[9]": {"assay": "Inhibition of ABCB1 in human SW620/Ad300 cells assessed as potentiation of doxorubicin-induced cytotoxicity by measuring doxorubicin IC50 at 20 uM after 72 hrs by MTT assay (Rvb = 6.15 +/- 0.63 microM)"}, "[10]": {"assay": "Inhibition of ABCB1 (unknown origin) expressed in HEK293T cells assessed as potentiation of cisplatin-induced cytotoxicity by measuring cisplatin IC50 at 4 uM after 72 hrs by MTT assay (Rvb = 7.22 +/- 0.45 microM)"}, "[11]": {"assay": "Inhibition of ABCB1 (unknown origin) expressed in HEK293T cells assessed as potentiation of cisplatin-induced cytotoxicity by measuring cisplatin IC50 at 10 uM after 72 hrs by MTT assay (Rvb = 7.22 +/- 0.45 microM)"}, "[12]": {"assay": "Inhibition of ABCB1 (unknown origin) expressed in HEK293T cells assessed as potentiation of cisplatin-induced cytotoxicity by measuring cisplatin IC50 at 20 uM after 72 hrs by MTT assay (Rvb = 7.22 +/- 0.45 microM)"}, "[13]": {"assay": "Inhibition of ABCB1 (unknown origin) expressed in HEK293T cells assessed as potentiation of paclitaxel-induced cytotoxicity by measuring paclitaxel IC50 at 4 uM after 72 hrs by MTT assay (Rvb = 0.09 +/- 0.02 microM)"}, "[14]": {"assay": "Inhibition of ABCB1 (unknown origin) expressed in HEK293T cells assessed as potentiation of paclitaxel-induced cytotoxicity by measuring paclitaxel IC50 at 10 uM after 72 hrs by MTT assay (Rvb = 0.09 +/- 0.02 microM)"}, "[15]": {"assay": "Inhibition of ABCB1 (unknown origin) expressed in HEK293T cells assessed as potentiation of paclitaxel-induced cytotoxicity by measuring paclitaxel IC50 at 20 uM after 72 hrs by MTT assay (Rvb = 0.09 +/- 0.02 microM)"}, "[16]": {"assay": "Inhibition of ABCB1 (unknown origin) expressed in HEK293T cells assessed as potentiation of doxorubicin-induced cytotoxicity by measuring doxorubicin IC50 at 4 uM after 72 hrs by MTT assay (Rvb = 1.17 +/- 0.09 microM)"}, "[17]": {"assay": "Inhibition of ABCB1 (unknown origin) expressed in HEK293T cells assessed as potentiation of doxorubicin-induced cytotoxicity by measuring doxorubicin IC50 at 10 uM after 72 hrs by MTT assay (Rvb = 1.17 +/- 0.09 microM)"}, "[18]": {"assay": "Inhibition of ABCB1 (unknown origin) expressed in HEK293T cells assessed as potentiation of doxorubicin-induced cytotoxicity by measuring doxorubicin IC50 at 20 uM after 72 hrs by MTT assay (Rvb = 1.17 +/- 0.09 microM)"}}, "data": [{"smiles": "O=c1cc(-c2ccccc2)[nH]c2nc(SCc3nc4ccccc4[nH]3)nn12", "values": [{"measurement": "IC50", "setting": "[1]", "result": 1590, "unit": "nM"}, {"measurement": "IC50", "setting": "[2]", "result": 1550, "unit": "nM"}, {"measurement": "IC50", "setting": "[3]", "result": 1640, "unit": "nM"}, {"measurement": "IC50", "setting": "[4]", "result": 830, "unit": "nM"}, {"measurement": "IC50", "setting": "[5]", "result": 1470, "unit": "nM"}, {"measurement": "IC50", "setting": "[6]", "result": 660, "unit": "nM"}, {"measurement": "IC50", "setting": "[7]", "result": 920, "unit": "nM"}, {"measurement": "IC50", "setting": "[8]", "result": 1280, "unit": "nM"}, {"measurement": "IC50", "setting": "[9]", "result": 800, "unit": "nM"}, {"measurement": "IC50", "setting": "[10]", "result": 7100, "unit": "nM"}, {"measurement": "IC50", "setting": "[11]", "result": 8260, "unit": "nM"}, {"measurement": "IC50", "setting": "[12]", "result": 7160, "unit": "nM"}, {"measurement": "IC50", "setting": "[13]", "result": 30, "unit": "nM"}, {"measurement": "IC50", "setting": "[14]", "result": 50, "unit": "nM"}, {"measurement": "IC50", "setting": "[15]", "result": 40, "unit": "nM"}, {"measurement": "IC50", "setting": "[16]", "result": 290, "unit": "nM"}, {"measurement": "IC50", "setting": "[17]", "result": 380, "unit": "nM"}, {"measurement": "IC50", "setting": "[18]", "result": 290, "unit": "nM"}]}]}
